Test results from ChEMBL document CHEMBL5247656, “Discovery of a Potent, Cooperative, and Selective SOS1 PROTAC ZZ151 with In Vivo Antitumor Efficacy in KRAS-Mutant Cancers” (J Med Chem, 2023).
pEC50, pIC50: −log10 of the molar value. Active and inactive are the calls of the source. The calls are words filed in the database; no cut-off is given here.

Tests used:
[1] = molecular target: T1, von Hippel-Lindau disease tumor suppressor/Son of sevenless homolog 1 (Homo sapiens) (UniProt Q07889+P40337); test: PROTAC activity at VHL/SOS1 in human NCI-H358 cells assessed as induction of SOS1 protein degradation at 0.1 uM incubated for 24 hrs by Immunoblot analysis relative to control; assay type: cell-based
[2] = molecular target: von Hippel-Lindau disease tumor suppressor/Son of sevenless homolog 1 (Homo sapiens, UniProt P40337+Q07889); test: PROTAC activity at VHL/SOS1 in human NCI-H358 cells assessed as induction of SOS1 protein degradation incubated for 24 hrs by Immunoblot analysis; assay type: cell-based
[3] = molecular target: T1, von Hippel-Lindau disease tumor suppressor/Son of sevenless homolog 1 (Homo sapiens); test: PROTAC activity at VHL/SOS1 in human ASPC1 cells harboring KRAS G12D mutant with shRNA lentivirus mediated VHL knockdown assessed as induction of SOS1 degradation at 1 uM incubated for 24 hrs by Immunoblot analysis; assay type: cell-based
[4] = molecular target: T1, von Hippel-Lindau disease tumor suppressor/Son of sevenless homolog 1 (Homo sapiens); test: (§1) PROTAC activity at VHL/SOS1 in human ASPC1 cells harboring KRAS G12D mutant assessed as induction of SOS1 degradation at 1 uM preincubated with VHL ligand for 4 hrs followed by compound treatment and measured after 24 hrs by immunoblot analysis; assay type: cell-based
[5] = molecular target: T1, von Hippel-Lindau disease tumor suppressor/Son of sevenless homolog 1 (Homo sapiens); test: as §1, with “(R)-1-(4-(4-((1-(3-amino-5-(trifluoromethyl)phenyl)ethyl)amino)-7-methoxy-2-methylquinazolin-6-yl)piperidin-1-yl)ethanone” for “VHL ligand”; assay type: cell-based
[6] = molecular target: von Hippel-Lindau disease tumor suppressor/Son of sevenless homolog 1 (Homo sapiens, UniProt P40337+Q07889, Q61H); test: PROTAC activity at VHL/SOS1 in human NCI-H460 cells harboring KRAS Q61H mutant assessed as induction of SOS1 degradation incubated for 24 hrs by Immunoblot analysis; assay type: cell-based
[7] = molecular target: T1, von Hippel-Lindau disease tumor suppressor/Son of sevenless homolog 1 (Homo sapiens); test: PROTAC activity at VHL/SOS1 in human SNU-C2B cells harboring KRAS G12D mutant assessed as induction of SOS1 degradation by measuring maximal efficacy at 1 to 2000 nM incubated for 24 hrs by Immunoblot analysis relative to control; assay type: cell-based; conditions: dose 1-2000 nM
[8] = molecular target: T1, von Hippel-Lindau disease tumor suppressor/Son of sevenless homolog 1 (Homo sapiens); test: PROTAC activity at VHL/SOS1 in human HPAF-II cells harboring KRAS G12D mutant assessed as induction of SOS1 degradation by measuring maximal efficacy at 1 to 2000 nM incubated for 24 hrs by Immunoblot analysis relative to control; assay type: cell-based; conditions: dose 1-2000 nM
[9] = molecular target: T1, von Hippel-Lindau disease tumor suppressor/Son of sevenless homolog 1 (Homo sapiens); test: PROTAC activity at VHL/SOS1 in human PANC-1 cells harboring KRAS G12D mutant assessed as induction of SOS1 degradation by measuring maximal efficacy at 1 to 2000 nM incubated for 24 hrs by Immunoblot analysis relative to control; assay type: cell-based; conditions: dose 1-2000 nM
[10] = molecular target: T1, von Hippel-Lindau disease tumor suppressor/Son of sevenless homolog 1 (Homo sapiens); test: PROTAC activity at VHL/SOS1 in human SK-LU-1 cells harboring KRAS G12D mutant assessed as induction of SOS1 degradation by measuring maximal efficacy at 1 to 2000 nM incubated for 24 hrs by Immunoblot analysis relative to control; assay type: cell-based; conditions: dose 1-2000 nM
[11] = molecular target: T1, von Hippel-Lindau disease tumor suppressor/Son of sevenless homolog 1 (Homo sapiens); test: PROTAC activity at VHL/SOS1 in human SNU1 cells harboring KRAS G12D mutant assessed as induction of SOS1 degradation by measuring maximal efficacy at 1 to 2000 nM incubated for 24 hrs by Immunoblot analysis relative to control; assay type: cell-based; conditions: dose 1-2000 nM
[12] = molecular target: T1, von Hippel-Lindau disease tumor suppressor/Son of sevenless homolog 1 (Homo sapiens); test: PROTAC activity at VHL/SOS1 in human NCI-H441 cells harboring KRAS G12V mutant assessed as induction of SOS1 degradation by measuring maximal efficacy at 1 to 2000 nM incubated for 24 hrs by Immunoblot analysis relative to control; assay type: cell-based; conditions: dose 1-2000 nM
[13] = molecular target: T1, von Hippel-Lindau disease tumor suppressor/Son of sevenless homolog 1 (Homo sapiens); test: PROTAC activity at VHL/SOS1 in human HCT-116 cells harboring KRAS G13D mutant assessed as induction of SOS1 degradation by measuring maximal efficacy at 1 to 2000 nM incubated for 24 hrs by Immunoblot analysis relative to control; assay type: cell-based; conditions: dose 1-2000 nM
[14] = test system: ASPC1; test: Antiproliferative activity against human ASPC1 cells harboring KRAS G12D mutant assessed as inhibition of cell proliferation incubated for 7 days by CellTiterGlo-3D proliferation assay; assay type: functional, cell-based; conditions: ASPC1, 168 h
[15] = test system: NCI-H460; test: Antiproliferative activity against human NCI-H460 cells harboring KRAS […] mutant assessed as inhibition of cell proliferation incubated for 7 days by CellTiterGlo-3D proliferation assay; assay type: functional, cell-based; conditions: time 7.0 day
[16] = molecular target: T1, von Hippel-Lindau disease tumor suppressor/Son of sevenless homolog 1 (Homo sapiens); test: PROTAC activity at VHL/SOS1 in human ASPC1 cells harboring KRAS G12D mutant assessed as induction of SOS1 degradation at 1 uM incubated for 2 to 4 hrs by Immunoblot analysis; assay type: cell-based; conditions: time 2-4 hrs
[17] = molecular target: T1, von Hippel-Lindau disease tumor suppressor/Son of sevenless homolog 1 (Homo sapiens); test: PROTAC activity at VHL/SOS1 in human SW620 cells harboring KRAS G12V mutant assessed as induction of SOS1 degradation at 1 uM incubated for 8 hrs by Immunoblot analysis; assay type: cell-based
[18] = test system: ASPC1; test: Antitumor activity against human ASPC1 cells harboring KRAS G12D mutant xenografted in BALB/c nude mouse assessed as tumor growth inhibition at 10 mg/kg, ip administered once daily for 3 weeks relative to control; assay type: functional; conditions: ASPC1, 504 h, read-out: TGI
[19] = test system: ASPC1; test: Antitumor activity against human ASPC1 cells harboring KRAS G12D mutant xenografted in BALB/c nude mouse assessed as tumor growth inhibition at 20 mg/kg, ip administered once daily for 3 weeks relative to control; assay type: functional; conditions: ASPC1, 504 h, read-out: TGI
[20] = test system: SW-620; test: Antitumor activity against human SW620 cells harboring KRAS G12V mutant xenografted in BALB/c nude mouse assessed as tumor growth inhibition at 20 mg/kg, ip administered once daily for 2 weeks relative to control; assay type: functional; conditions: SW-620, 336 h, read-out: TGI
[21] = Toxicity in BALB/c nude mouse xenografted with human ASPC1 cells harboring KRAS G12D mutant assessed as body weight loss at 10 to 20 mg/kg, ip administered once daily for 3 weeks; assay type: organism-based; conditions: in vivo, 504 h, dose 10-20 mg/kg
[22] = molecular target: T1, von Hippel-Lindau disease tumor suppressor/Son of sevenless homolog 1 (Homo sapiens); test: In vivo PROTAC activity at VHL/SOS1 in human ASPC1 cells harboring KRAS G12D mutant xenografted BALB/c nude mouse assessed as induction of SOS1 degradation administered intraperitoneally once daily for 3 weeks by Immunoblot analysis; assay type: functional; conditions: dose 10-20 mg/kg, route ip
[23] = molecular target: T1, von Hippel-Lindau disease tumor suppressor/Son of sevenless homolog 1 (Homo sapiens); test: In vivo PROTAC activity at VHL/SOS1 in human SW620 cells harboring KRAS G12V mutant xenografted BALB/c nude mouse assessed as decrease in phosphorylated ERK expression in tumor at 10 to 20 mg/kg, ip administered once daily for 2 weeks by immunohistochemistry analysis; assay type: functional, organism-based; conditions: SW-620, dose 10-20 mg/kg

T1 sequence (P40337 whole entry, looked up): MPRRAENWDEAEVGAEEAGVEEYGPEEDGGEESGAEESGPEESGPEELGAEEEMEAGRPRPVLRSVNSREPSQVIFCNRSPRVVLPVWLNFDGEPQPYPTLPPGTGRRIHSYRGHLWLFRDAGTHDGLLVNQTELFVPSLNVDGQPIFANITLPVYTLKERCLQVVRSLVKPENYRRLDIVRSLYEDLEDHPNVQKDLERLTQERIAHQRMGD
T1 sequence (Q07889 whole entry, looked up): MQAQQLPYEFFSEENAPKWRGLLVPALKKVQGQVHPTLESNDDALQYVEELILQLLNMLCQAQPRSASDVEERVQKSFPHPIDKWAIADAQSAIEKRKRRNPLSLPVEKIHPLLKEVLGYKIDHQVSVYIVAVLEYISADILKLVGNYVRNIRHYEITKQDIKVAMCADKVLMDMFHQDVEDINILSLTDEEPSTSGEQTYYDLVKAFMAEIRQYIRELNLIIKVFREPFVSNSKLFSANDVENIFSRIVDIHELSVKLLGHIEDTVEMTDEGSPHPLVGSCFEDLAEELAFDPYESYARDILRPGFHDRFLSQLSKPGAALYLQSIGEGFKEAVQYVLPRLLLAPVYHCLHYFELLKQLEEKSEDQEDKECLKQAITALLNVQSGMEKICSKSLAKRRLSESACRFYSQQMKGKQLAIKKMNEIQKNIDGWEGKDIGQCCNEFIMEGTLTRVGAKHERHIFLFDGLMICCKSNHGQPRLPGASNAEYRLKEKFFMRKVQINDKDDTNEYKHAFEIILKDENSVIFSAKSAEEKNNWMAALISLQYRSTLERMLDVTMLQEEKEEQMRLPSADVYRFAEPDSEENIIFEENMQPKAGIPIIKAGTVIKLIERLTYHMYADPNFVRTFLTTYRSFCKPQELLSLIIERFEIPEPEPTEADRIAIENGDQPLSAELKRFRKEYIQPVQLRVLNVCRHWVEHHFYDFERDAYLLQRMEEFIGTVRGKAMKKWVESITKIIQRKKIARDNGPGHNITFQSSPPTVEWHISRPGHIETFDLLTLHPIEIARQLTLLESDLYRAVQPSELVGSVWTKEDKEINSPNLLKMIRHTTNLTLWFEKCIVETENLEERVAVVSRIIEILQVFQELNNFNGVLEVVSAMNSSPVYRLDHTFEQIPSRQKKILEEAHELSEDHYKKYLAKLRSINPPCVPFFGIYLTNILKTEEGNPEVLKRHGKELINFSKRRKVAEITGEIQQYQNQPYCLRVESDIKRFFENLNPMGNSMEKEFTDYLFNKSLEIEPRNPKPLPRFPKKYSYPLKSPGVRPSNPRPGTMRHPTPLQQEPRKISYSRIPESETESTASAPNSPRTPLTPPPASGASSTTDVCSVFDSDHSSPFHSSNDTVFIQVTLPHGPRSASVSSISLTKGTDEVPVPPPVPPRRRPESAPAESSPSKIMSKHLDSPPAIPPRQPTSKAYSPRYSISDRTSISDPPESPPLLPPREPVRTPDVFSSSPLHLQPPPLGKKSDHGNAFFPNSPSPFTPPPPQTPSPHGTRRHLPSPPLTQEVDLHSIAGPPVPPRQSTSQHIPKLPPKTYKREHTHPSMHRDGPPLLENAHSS
von Hippel-Lindau disease tumor suppressor/Son of sevenless homolog 1 (Homo sapiens, UniProt P40337+Q07889), sequence (Q07889 whole entry): as the sequence (Q07889 whole entry, looked up) above
von Hippel-Lindau disease tumor suppressor/Son of sevenless homolog 1 (Homo sapiens, UniProt P40337+Q07889), sequence (P40337 whole entry): as the sequence (P40337 whole entry, looked up) above

SMILES: COc1cc2nc(C)nc(N[C@H](C)c3cc(N)cc(C(F)(F)F)c3)c2cc1C1CCN(C(=O)CCCCCC(=O)N[C@H](C(=O)N2C[C@H](O)C[C@H]2C(=O)N[C@@H](C)c2ccc(-c3scnc3C)cc2)C(C)(C)C)CC1
- Activity [1]: 83.9%
- pEC50 [2]: 7.80
- Activity [3]: inactive
- Activity [4]: inactive
- Activity [5]: inactive
- pEC50 [6]: 7.09
- Emax [7]: > 95%
- Emax [8]: > 95%
- Emax [9]: > 95%
- Emax [10]: > 95%
- Emax [11]: > 95%
- Emax [12]: > 95%
- Emax [13]: > 95%
- pIC50 [14]: 8.16
- inhibition [15]: inactive
- Activity [16]: Active
- Activity [17]: Active
- inhibition in vivo at 10 mg/kg [18]: 38.8%
- inhibition in vivo at 20 mg/kg [19]: 70.2%
- inhibition in vivo at 20 mg/kg [20]: 65.4%
- Activity [21]: Non-Toxic
- Activity [22]: Dose-Dependent Effect
- Activity [23]: Active
